{"source": "ChEMBL document CHEMBL4043168", "about": "“The design and SAR of a novel series of 2-aminopyridine based LRRK2 inhibitors” (Bioorg Med Chem Lett, 2017)", "key": {"[1]": {"molecular_target": "Serine/threonine-protein kinase WNK2 (Homo sapiens) (UniProt Q9Y3S1)", "assay": "Inhibition of Wnk2 ATP binding site (GSFKTVYK) in human PBMC at 0.1 uM"}, "[2]": {"molecular_target": "Serine/threonine-protein kinase PLK1 (Homo sapiens) (UniProt P53350)", "sequence (P53350 whole entry)": "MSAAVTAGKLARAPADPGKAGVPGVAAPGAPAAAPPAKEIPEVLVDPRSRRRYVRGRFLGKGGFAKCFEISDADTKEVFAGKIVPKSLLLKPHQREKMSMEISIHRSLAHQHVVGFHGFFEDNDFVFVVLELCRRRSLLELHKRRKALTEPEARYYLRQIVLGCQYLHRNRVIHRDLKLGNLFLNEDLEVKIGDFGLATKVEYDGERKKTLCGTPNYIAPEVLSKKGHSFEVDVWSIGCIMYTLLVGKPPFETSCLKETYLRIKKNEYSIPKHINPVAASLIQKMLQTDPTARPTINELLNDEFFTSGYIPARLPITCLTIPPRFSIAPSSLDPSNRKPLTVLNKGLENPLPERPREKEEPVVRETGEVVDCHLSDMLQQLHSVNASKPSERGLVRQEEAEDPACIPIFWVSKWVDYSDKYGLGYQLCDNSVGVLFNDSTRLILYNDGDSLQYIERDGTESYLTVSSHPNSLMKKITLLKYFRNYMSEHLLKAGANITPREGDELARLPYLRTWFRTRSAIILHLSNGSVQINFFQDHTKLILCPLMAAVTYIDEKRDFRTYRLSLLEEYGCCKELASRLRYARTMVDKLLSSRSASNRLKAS", "assay": "Inhibition of PLK1 conserved Lys1 (CFEISDADTKEVFAGKIVPK) in human PBMC at 0.1 uM"}, "[3]": {"molecular_target": "T1, Inhibitor of nuclear factor kappa-B kinase subunit epsilon (Homo sapiens) (UniProt Q14164)", "T1 sequence (whole entry)": "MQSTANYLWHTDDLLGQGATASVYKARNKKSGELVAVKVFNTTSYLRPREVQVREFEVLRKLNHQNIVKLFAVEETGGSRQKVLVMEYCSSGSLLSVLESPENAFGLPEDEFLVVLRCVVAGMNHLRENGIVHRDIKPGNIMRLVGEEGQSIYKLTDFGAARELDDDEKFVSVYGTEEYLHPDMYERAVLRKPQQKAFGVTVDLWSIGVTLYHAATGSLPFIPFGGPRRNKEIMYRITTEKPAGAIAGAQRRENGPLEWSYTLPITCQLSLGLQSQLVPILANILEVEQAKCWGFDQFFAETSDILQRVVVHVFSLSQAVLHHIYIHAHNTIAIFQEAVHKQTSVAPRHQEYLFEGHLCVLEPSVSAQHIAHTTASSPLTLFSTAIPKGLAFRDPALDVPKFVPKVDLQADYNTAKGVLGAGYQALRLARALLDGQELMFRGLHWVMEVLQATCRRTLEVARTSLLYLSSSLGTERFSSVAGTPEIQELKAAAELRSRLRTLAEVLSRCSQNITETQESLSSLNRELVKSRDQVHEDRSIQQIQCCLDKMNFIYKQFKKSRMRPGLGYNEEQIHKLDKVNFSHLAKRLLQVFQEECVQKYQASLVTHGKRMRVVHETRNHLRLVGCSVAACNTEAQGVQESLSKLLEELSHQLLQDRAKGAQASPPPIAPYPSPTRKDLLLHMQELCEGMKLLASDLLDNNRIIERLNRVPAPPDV", "assay": "Inhibition of IKKe conserved Lys2 (DIKPGNIMR) in human PBMC at 0.1 uM"}, "[4]": {"molecular_target": "Ribosomal protein S6 kinase alpha-4 (Homo sapiens) (UniProt O75676)", "sequence (O75676 whole entry, looked up, the tested form may be a part)": "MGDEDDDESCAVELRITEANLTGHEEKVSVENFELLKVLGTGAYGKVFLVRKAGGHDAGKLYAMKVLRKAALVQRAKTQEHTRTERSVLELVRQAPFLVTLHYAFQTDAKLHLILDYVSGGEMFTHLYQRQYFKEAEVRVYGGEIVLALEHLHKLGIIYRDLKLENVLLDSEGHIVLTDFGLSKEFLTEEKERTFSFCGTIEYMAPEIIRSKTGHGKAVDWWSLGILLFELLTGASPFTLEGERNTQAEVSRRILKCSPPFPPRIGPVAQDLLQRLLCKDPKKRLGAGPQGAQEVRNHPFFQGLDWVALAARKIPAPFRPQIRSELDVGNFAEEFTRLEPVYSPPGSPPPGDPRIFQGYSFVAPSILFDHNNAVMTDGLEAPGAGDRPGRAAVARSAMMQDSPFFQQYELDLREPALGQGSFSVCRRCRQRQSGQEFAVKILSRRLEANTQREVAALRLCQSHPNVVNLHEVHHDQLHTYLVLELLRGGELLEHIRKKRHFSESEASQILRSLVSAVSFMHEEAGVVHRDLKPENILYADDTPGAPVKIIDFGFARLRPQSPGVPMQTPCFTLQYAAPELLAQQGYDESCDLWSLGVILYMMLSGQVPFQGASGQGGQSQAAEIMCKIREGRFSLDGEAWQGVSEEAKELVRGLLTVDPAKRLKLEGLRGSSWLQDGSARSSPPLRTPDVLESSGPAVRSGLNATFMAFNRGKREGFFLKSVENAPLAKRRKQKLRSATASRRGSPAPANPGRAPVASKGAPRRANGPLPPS", "assay": "Inhibition of MSK2 domain1 conserved Lys2 (DIKLENILLDSNGHVVLTDFGLSK) in human PBMC at 0.1 uM"}, "[5]": {"molecular_target": "T2, Phosphatidylinositol 4,5-bisphosphate 3-kinase catalytic subunit delta isoform (Homo sapiens) (UniProt O00329)", "T2 sequence (whole entry)": "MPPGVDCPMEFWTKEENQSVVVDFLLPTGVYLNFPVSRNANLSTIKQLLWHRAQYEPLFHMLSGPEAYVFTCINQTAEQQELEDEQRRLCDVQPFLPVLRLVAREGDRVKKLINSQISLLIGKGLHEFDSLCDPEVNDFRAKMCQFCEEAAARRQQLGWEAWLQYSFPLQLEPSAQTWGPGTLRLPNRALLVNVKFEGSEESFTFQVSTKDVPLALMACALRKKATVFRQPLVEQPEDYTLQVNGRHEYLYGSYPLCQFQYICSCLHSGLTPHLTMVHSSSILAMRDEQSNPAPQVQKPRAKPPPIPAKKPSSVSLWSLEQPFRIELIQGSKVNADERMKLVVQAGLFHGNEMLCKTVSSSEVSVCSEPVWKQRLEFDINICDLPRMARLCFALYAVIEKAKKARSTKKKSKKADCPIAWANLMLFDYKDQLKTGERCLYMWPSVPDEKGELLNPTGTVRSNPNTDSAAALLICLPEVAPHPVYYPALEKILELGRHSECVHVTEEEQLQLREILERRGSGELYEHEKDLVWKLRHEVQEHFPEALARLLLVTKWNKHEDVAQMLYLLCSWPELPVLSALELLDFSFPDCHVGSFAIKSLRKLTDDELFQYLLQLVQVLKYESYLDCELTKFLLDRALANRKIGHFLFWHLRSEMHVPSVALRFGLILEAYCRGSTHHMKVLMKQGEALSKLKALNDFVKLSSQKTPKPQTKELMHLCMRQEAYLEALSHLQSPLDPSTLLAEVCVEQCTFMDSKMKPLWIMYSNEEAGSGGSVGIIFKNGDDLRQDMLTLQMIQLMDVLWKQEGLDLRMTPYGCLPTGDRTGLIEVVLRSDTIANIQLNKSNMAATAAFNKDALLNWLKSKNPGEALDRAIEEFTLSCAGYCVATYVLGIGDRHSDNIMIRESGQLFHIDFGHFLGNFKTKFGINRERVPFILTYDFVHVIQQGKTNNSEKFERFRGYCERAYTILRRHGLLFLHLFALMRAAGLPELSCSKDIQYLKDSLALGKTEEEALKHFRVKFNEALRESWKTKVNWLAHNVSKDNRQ", "assay": "Inhibition of PIK3CD ATP binding site (VNWLAHNVSKDNRQ) in human PBMC at 0.1 uM"}, "[6]": {"molecular_target": "Mitogen-activated protein kinase kinase kinase 4 (Homo sapiens) (UniProt Q9Y6R4)", "assay": "Inhibition of MAP3K4 conserved Lys2 (DIKGANIFLTSSGLIK) in human PBMC at 0.1 uM"}, "[7]": {"molecular_target": "1-phosphatidylinositol 3-phosphate 5-kinase (Homo sapiens) (UniProt Q9Y2I7)", "sequence (Q9Y2I7 whole entry)": "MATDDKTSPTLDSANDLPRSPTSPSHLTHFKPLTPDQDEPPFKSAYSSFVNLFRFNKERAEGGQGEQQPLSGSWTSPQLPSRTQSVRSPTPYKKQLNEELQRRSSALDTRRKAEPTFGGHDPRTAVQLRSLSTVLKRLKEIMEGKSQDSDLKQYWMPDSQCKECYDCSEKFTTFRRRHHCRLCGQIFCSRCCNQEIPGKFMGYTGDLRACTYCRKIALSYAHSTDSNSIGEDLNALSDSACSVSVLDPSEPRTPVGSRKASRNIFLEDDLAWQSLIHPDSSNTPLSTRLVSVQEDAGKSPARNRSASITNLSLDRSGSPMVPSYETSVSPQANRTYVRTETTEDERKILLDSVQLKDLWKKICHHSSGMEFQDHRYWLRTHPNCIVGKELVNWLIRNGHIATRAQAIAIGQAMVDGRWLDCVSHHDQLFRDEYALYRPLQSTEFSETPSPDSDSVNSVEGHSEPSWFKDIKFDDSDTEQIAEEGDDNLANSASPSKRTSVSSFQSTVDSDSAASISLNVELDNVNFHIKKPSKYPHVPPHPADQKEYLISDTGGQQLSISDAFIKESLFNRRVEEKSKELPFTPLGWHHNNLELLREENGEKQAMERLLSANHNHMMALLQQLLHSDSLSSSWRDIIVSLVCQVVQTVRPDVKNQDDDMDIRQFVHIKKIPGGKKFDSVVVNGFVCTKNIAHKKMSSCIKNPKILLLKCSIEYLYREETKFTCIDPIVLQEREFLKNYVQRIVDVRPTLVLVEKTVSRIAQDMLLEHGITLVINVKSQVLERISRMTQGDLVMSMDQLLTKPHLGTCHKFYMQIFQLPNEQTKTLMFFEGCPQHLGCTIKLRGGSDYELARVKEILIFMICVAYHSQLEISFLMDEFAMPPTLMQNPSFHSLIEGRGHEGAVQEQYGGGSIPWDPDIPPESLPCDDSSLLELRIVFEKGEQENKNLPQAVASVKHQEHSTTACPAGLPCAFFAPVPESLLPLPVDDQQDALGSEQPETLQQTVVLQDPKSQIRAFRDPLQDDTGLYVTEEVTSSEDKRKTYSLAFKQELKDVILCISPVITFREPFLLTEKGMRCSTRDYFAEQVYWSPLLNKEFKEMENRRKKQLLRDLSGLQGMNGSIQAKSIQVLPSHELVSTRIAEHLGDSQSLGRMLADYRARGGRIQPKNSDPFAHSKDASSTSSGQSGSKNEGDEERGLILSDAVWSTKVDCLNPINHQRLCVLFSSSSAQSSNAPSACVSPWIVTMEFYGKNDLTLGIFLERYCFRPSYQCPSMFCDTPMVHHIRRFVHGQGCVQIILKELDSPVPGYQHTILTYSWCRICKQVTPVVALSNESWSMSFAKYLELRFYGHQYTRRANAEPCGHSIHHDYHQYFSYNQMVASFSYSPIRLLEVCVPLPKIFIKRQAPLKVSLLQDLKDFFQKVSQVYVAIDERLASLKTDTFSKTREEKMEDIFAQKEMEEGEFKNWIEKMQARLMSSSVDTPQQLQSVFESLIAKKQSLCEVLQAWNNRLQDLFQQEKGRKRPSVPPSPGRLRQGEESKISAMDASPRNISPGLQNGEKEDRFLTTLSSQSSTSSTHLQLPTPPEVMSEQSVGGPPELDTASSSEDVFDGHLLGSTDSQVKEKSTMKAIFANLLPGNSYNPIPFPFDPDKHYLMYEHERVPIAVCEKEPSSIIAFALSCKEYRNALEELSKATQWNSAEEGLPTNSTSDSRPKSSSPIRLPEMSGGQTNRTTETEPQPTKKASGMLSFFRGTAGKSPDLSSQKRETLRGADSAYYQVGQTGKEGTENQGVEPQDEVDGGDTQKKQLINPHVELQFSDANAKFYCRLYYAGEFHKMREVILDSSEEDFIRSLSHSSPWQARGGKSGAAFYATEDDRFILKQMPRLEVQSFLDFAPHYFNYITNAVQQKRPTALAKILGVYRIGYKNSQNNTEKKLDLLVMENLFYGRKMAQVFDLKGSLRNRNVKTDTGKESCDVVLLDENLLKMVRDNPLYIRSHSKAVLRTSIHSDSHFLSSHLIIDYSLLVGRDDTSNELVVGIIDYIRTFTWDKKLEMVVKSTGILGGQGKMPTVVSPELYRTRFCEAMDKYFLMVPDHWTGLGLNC", "assay": "Inhibition of PIP5K3 ATP binding site (GGKSGAAFYATEDDRFILK) in human PBMC at 1 uM"}, "[8]": {"molecular_target": "Serine/threonine-protein kinase 24 (Homo sapiens) (UniProt Q9Y6E0)", "sequence (Q9Y6E0 whole entry, looked up)": "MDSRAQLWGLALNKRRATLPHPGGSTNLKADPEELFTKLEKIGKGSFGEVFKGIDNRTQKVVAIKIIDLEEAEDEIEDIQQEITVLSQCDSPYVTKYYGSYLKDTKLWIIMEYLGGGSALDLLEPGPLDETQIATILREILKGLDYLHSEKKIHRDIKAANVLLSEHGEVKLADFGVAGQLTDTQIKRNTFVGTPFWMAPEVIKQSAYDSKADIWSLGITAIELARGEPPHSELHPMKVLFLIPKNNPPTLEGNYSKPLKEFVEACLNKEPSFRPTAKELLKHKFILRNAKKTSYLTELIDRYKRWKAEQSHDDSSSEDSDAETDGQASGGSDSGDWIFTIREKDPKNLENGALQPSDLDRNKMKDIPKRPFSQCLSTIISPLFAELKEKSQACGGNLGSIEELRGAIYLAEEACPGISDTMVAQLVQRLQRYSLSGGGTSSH", "assay": "Inhibition of MST3 conserved Lys2 (DIKAANVLLSEHGEVK) in human PBMC at 1 uM"}, "[9]": {"molecular_target": "Ribosomal protein S6 kinase beta-2 (Homo sapiens) (UniProt Q9UBS0)", "sequence (Q9UBS0 whole entry)": "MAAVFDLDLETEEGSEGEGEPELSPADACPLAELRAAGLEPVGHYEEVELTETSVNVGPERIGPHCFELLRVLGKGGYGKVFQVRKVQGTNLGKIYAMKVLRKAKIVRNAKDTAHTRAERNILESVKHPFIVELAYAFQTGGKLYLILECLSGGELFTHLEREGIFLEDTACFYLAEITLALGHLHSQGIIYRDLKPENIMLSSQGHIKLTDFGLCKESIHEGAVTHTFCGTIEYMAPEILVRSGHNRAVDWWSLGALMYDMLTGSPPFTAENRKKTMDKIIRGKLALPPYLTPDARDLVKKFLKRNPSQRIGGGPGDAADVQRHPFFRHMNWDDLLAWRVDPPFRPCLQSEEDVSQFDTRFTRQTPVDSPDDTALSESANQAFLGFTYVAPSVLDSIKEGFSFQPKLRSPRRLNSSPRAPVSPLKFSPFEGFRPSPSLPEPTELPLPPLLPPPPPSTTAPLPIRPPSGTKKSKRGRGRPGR", "assay": "Inhibition of p70S6Kb ATP binding site (GGYGKVFQVR) in human PBMC at 1 uM"}, "[10]": {"molecular_target": "Cyclin-dependent kinase 1 (Homo sapiens) (UniProt P06493)", "sequence (P06493 whole entry, looked up)": "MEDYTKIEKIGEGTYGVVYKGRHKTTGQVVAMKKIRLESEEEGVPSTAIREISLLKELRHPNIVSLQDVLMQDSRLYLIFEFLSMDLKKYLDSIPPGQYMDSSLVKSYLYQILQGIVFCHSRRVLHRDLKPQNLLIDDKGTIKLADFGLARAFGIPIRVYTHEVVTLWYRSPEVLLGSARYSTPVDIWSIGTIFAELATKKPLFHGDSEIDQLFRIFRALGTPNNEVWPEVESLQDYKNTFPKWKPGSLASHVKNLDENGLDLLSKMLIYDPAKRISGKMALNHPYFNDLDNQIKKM", "assay": "Inhibition of CDC2 labeling at conserved Lys2 (DLKPQNLLIDDKGTIK) in human PBMC at 0.1 uM"}}, "data": [{"smiles": "CC(C)n1cc(-c2cc(-c3ccc(CN4CCOCC4)cc3)cnc2N)nn1", "values": [{"measurement": "inhibition", "setting": "[1]", "value": 18.3, "unit": "%"}, {"measurement": "inhibition", "setting": "[2]", "value": 24.7, "unit": "%"}, {"measurement": "inhibition", "setting": "[3]", "value": 21.7, "unit": "%"}, {"measurement": "inhibition", "setting": "[4]", "value": 31.2, "unit": "%"}, {"measurement": "inhibition", "setting": "[5]", "value": 0.5, "unit": "%"}, {"measurement": "inhibition", "setting": "[6]", "value": 3.8, "unit": "%"}, {"measurement": "inhibition", "setting": "[7]", "value": -9.2, "unit": "%"}, {"measurement": "inhibition", "setting": "[8]", "value": 7.2, "unit": "%"}, {"measurement": "inhibition", "setting": "[9]", "value": -7.8, "unit": "%"}, {"measurement": "inhibition", "setting": "[10]", "value": 14.4, "unit": "%"}]}]}
